≈ marks a conversion by molar mass, not a printed value. Like-named read-outs stand apart in the source and are kept apart here.
Experiments:
Solubility pH 7.4 = format: physicochemical; details: aqueous buffer
[1] = Microsomal stability (rat); format: in vitro ADME; details: rat microsomes
[2] = tested on: Asexual parasites of P. falciparum strain 3D7; test: In vitro drug activity on asexual parasites (SYBR Green assay); format: cell-based; details: Plasmodium falciparum, P. falciparum 3D7 asexual stage, 72 h, read-out: Asexual EC50
Method: Cell culture. Asexual parasites of P. falciparum strain 3D7 were cultured as described previously [Trager W, et al., Journal of Parasitology 2005, 91: 484-486]. Stage III-V gametocytes were selected and enriched with 3-day treatment with 50 mM N-acetylglucosamine (NAG) and the following Percoll density gradient centrifugation after gametocyte production [Tanaka T Q, et al., Molecular and Biochemical Parasitology, 2011, 177: 160-163]. Gametocytes of HB3 and Dd2 strains were produced and then set up for assay in a similar process. HepG2 cells (ATCC, cat. no. 77400) were cultured in 175-cm^2 tissue culture flasks with 30 ml growth medium at 37° C. in a 5% CO2 humidified atmosphere. Growth medium was made with Dulbecco's Modified Eagle Medium with 10% fetal bovine serum (FBS). Growth medium was replaced every other day and cells were passed at 75% confluence.
Asexual parasites of P. falciparum strain 3D7 were cultured as described previously (Trager, W. et al., J. Parasitol. 2005, 91(3): 484-486). Drug activity on asexual stage parasites was tested using a SYBR Green assay as described previously (Eastman, R. T. et al., Antimicrob. Agents Chemother. 2013, 57(1): 425-435; Smilkstein, M. et al., Antimicrob. Agents Chemother. 2004, 48(5): 1803-1806). Briefly, parasites were diluted to 0.5% parasitemia in complete culture medium with 2% hematocrit and drugs diluted in DMSO (<0.5%) and were loaded into a 96-well plate (200 μl/well). No drug and RBC alone wells were included as positive and background controls, respectively, and each testing condition was examined in duplicated. After 72 h incubation under the standard culture condition and a freeze-thaw lysis step at −80° C. and room temperature, 100 μl/well of lysis buffer containing SYBR Green I was added to the parasite culture and incubated for 30 min at room temperature. The fluorescence of each well was measured at 520 nm following excitation at 490 nm using a FLUOstar Optima™ microplate reader (BMG Labtech).
Compounds were screened against gametocytes and asexual parasites as described in Examples 1 and 2.

[3] = Table 2, read-out: Microsomal Stability (rat) T1/2
[4] = Table 3, read-out: Microsomal Stability (rat) T1/2

Compound	solubility (Solubility pH 7.4; Table 3) [µg/mL]	EC50 ([2]; Table 3) [nM]	EC50 ([2]; Table 1) [nM]	also measured
N#Cc1cccc(-n2c(=N)ccc3cnc4ccc(-c5ccc(Cl)cc5)cc4c32)c1	–	–	–	solubility (Solubility pH 7.4; Table 2): 25.9 µg/mL (≈ 63.7 µM); half-life [1, 3]: > 30 min; EC50 ([2]; Table 2): 186 nM
N=c1ccc2cnc3ccc(-c4ccc(Cl)cc4)cc3c2n1-c1cccc(C(F)(F)F)c1	–	–	–	solubility (Solubility pH 7.4; Table 2): 11.5 µg/mL (≈ 25.6 µM); half-life [1, 3]: > 30 min; EC50 ([2]; Table 2): 213 nM
Cc1ccc([S+](=O)([O-])/N=c2\ccc3cnc4ccc(-c5ccc(Cl)cc5)cc4c3n2-c2ccc(C(=O)NC3CC3)cc2)cc1	–	–	–	solubility (Solubility pH 7.4; Table 2): < 1 µg/mL; half-life [1, 3]: 11.5 min; EC50 ([2]; Table 2): 59 nM
N=c1ccc2cnc3ccc(-c4ccc(Cl)cc4)cc3c2n1-c1ccc(C(=O)NC2CC2)cc1	–	–	–	solubility (Solubility pH 7.4; Table 2): > 69 µg/mL; half-life [1, 3]: > 30 min; EC50 ([2]; Table 2): 85.7 nM
Cc1ncncc1-n1c(=N)n(C)c2cnc3ccc(-c4ccc(N)nc4)cc3c21	> 38	164	–	half-life [1, 4]: > 30 min
Cn1/c(=N\c2cncnc2)n(-c2cncnc2)c2c3cc(-c4cccc(F)c4)ccc3ncc21	–	193	–	–
Cn1nccc1-c1ccc2ncc3c(c2c1)n(-c1cncnc1)c(=N)n3C	36.3 (≈ 102 µM)	570	–	–
COc1cc(-c2ccc3ncc4c(c3c2)n(-c2cncnc2C)c(=N)n4C)ccc1Cl	1.3 (≈ 3.02 µM)	50.8	–	–
COc1ccc(-c2ccc3ncc4c(c3c2)n(-c2cncnc2C)c(=N)n4C)cc1F	> 61	229	–	–
COc1cc(-c2ccc3ncc4c(c3c2)n(-c2cncnc2C)c(=N)n4C)ccc1F	< 1	52.5	–	–
Cc1ncncc1-n1c(=N)n(C)c2cnc3ccc(-c4ccc(Cl)c(C(F)(F)F)c4)cc3c21	10.6 (≈ 22.6 µM)	160	–	half-life [1, 4]: > 30 min
Cn1c(=N)n(-c2cncnc2)c2c3cc(-c4ccc(Cl)c(C#N)c4)ccc3ncc21	–	136	–	–
Cc1ncncc1-n1c(=N)n(C)c2cnc3ccc(-c4ccc(Cl)c(OC(F)(F)F)c4)cc3c21	16 (≈ 33 µM)	158	–	half-life [1, 4]: > 30 min
Cn1c(=N)n(-c2cncnc2)c2c3cc(-c4ccc(Cl)c(OC(F)(F)F)c4)ccc3ncc21	< 1	315	–	half-life [1, 4]: > 30 min
COc1ccc(-c2ccc3ncc4c(c3c2)n(-c2cncnc2C)c(=N)n4C)cc1OC	–	25.8	–	half-life [1, 4]: > 30 min
Cn1c(=N)n(-c2ccnc(N)n2)c2c3cc(-c4ccc(Cl)cc4)ccc3ncc21	3.4 (≈ 8.46 µM)	140	–	half-life [1, 4]: > 30 min
Cn1c(=N)n(-c2ccnc(N)n2)c2c3cc(-c4cccc(F)c4)ccc3ncc21	20.9 (≈ 54.2 µM)	523	–	half-life [1, 4]: > 30 min
Cn1c(=N)n(-c2nccc(C(F)(F)F)n2)c2c3cc(-c4ccc(Cl)cc4)ccc3ncc21	< 1	450	–	–

Compound	solubility (Solubility pH 7.4; Table 3) [µg/mL]	EC50 ([2]; Table 3) [nM]	EC50 ([2]; Table 1) [nM]	also measured
Cn1c(=N)n(-c2nccc(C(F)(F)F)n2)c2c3cc(-c4cccc(F)c4)ccc3ncc21	< 1	202	–	–
COc1ccnc(-n2c(=N)n(C)c3cnc4ccc(-c5ccc(Cl)cc5)cc4c32)n1	< 1	2110	–	–
Cn1c(=N)n(-c2nccc(O)n2)c2c3cc(-c4ccc(Cl)cc4)ccc3ncc21	< 1	43100	–	half-life [1, 4]: > 30 min
COc1ccnc(-n2c(=N)n(C)c3cnc4ccc(-c5cccc(F)c5)cc4c32)n1	6.5 (≈ 16.2 µM)	1310	–	–
Cn1c(=N)n(-c2nccc(O)n2)c2c3cc(-c4cccc(F)c4)ccc3ncc21	< 1	18800	–	half-life [1, 4]: > 30 min
Cn1c(=N)n(-c2nccc(N)n2)c2c3cc(-c4ccc(Cl)cc4)ccc3ncc21	< 1	1860	–	half-life [1, 4]: > 30 min
Cn1c(=N)n(-c2cccc(CC#N)c2)c2c3cc(-c4ccc(Cl)cc4)ccc3ncc21 [Compound 73, 2-(3-(8-(4-chlorophenyl)-2-imino-3-methyl-2,3-dihydro-1H-imidazo[4,5-c]quinolin-1-yl)phenyl)acetonitrile]	–	–	118	–
Cn1c(=N)n(-c2ccnc(C#N)c2)c2c3cc(-c4ccc(Cl)cc4)ccc3ncc21 [Compound 90, 4-(8-(4-chlorophenyl)-2-imino-3-methyl-2,3-dihydro-1H-imidazo[4,5-c]quinolin-1-yl)picolinonitrile]	–	–	224	–
Cc1cc(N2CCCC2)c(C#N)cc1-n1c(=N)n(C)c2cnc3ccc(-c4ccc(Cl)cc4)cc3c21 [Compound 111, 5-(8-(4-chlorophenyl)-2-imino-3-methyl-2,3-dihydro-1H-imidazo[4,5-c]quinolin-1-yl)-4-methyl-2-(pyrrolidin-1-yl)benzonitrile]	–	–	801	–
Cc1cc(N2CCOC(C)C2)c(C#N)cc1-n1c(=N)n(C)c2cnc3ccc(-c4ccc(Cl)cc4)cc3c21 (stereo not shown) [Compound 119, 5-(8-(4-chlorophenyl)-2-imino-3-methyl-2,3-dihydro-1H-imidazo[4,5-c]quinolin-1-yl)-4-methyl-2-(2-methylmorpholino)benzonitrile]	–	–	352	–
Cc1cc(N2C[C@@H]3CCCN[C@@H]3C2)c(C#N)cc1-n1c(=N)n(C)c2cnc3ccc(-c4ccc(Cl)cc4)cc3c21 [Compound 120, 5-(8-(4-chlorophenyl)-2-imino-3-methyl-2,3-dihydro-1H-imidazo[4,5-c]quinolin-1-yl)-4-methyl-2-((4aS,7aS)-octahydro-6H-pyrrolo[3,4-b]pyridin-6-yl)benzonitrile]	–	–	1470	–
CC(=O)N1CCC(N2CCC(n3c(=N)n(C)c4cnc5ccc(-c6ccc(Cl)cc6)cc5c43)CC2)CC1 [Compound 127, 1-(4-(8-(4-chlorophenyl)-2-imino-3-methyl-2,3-dihydro-1H-imidazo[4,5-c]quinolin-1-yl)-[1,4′-bipiperidin]-1′-yl)ethan-1-one]	–	–	1500	–
CCC(=O)N1CCC(N2CCC(n3c(=N)n(C)c4cnc5ccc(-c6ccc(Cl)cc6)cc5c43)CC2)CC1 [Compound 128, 1-(4-(8-(4-chlorophenyl)-2-imino-3-methyl-2,3-dihydro-1H-imidazo[4,5-c]quinolin-1-yl)-[1,4′-bipiperidin]-1′-yl)propan-1-one]	–	–	627	–
Cc1cc(N2CCC(NS(C)(=O)=O)CC2)c(C#N)cc1-n1c(=N)n(C)c2cnc3ccc(-c4ccc(Cl)cc4)cc3c21 [Compound 131, N-(1-(4-(8-(4-chlorophenyl)-2-imino-3-methyl-2,3-dihydro-H-imidazo[4,5-c]quinolin-1-yl)-2-cyano-5-methylphenyl)piperidin-4-yl)methanesulfonamide]	–	–	16.3	–
Cc1cc(N2CCNC(=O)C2)c(C#N)cc1-n1c(=N)n(C)c2cnc3ccc(-c4ccc(Cl)cc4)cc3c21 [Compound 133, 5-(8-(4-chlorophenyl)-2-imino-3-methyl-2,3-dihydro-1H-imidazo[4,5-c]quinolin-1-yl)-4-methyl-2-(3-oxopiperazin-1-yl)benzonitrile]	–	–	6.26	–
Cc1cc(F)c(C#N)cc1-n1c(=N)n(C)c2cnc3ccc(-c4ccc(Cl)cc4)cc3c21 [Compound 134, 5-(8-(4-chlorophenyl)-2-imino-3-methyl-2,3-dihydro-1H-imidazo[4,5-c]quinolin-1-yl)-2-fluoro-4-methylbenzonitrile]	–	–	74.3	–
COC(=O)/N=c1\n(C)c2cnc3ccc(-c4cccc(F)c4)cc3c2n1-c1cc(C#N)c(N2CCOCC2)cc1C [Compound 148, Methyl (E)-(1-(5-cyano-2-methyl-4-morpholinophenyl)-8-(3-fluorophenyl)-3-methyl-1,3-dihydro-2H-imidazo[4,5-c]quinolin-2-ylidene)carbamate]	–	–	236	–

— patent US20210188843A1, “QUINOLINE COMPOUNDS AND THEIR PREPARATION AND USE AS ANTIMALARIAL AGENTS” (The United States of America,as represented by the …, priority 2018, published 2021)
